One series has as its system RAW264.7 cells. The experiment in a line: Cellular uptake test (intracellular Tri by HPLC). In kind it is cell-based, murine. Particulars: for Reduction in cellular uptake of HA@Tri-BLs: inhibitor or competitor added: free HA 25 μM, HUTCH-1 10 μg/mL, hypertonic sucrose 400 mM, chlorpromazine 25 μM, EIPA 50 μM, vs control without inhibitor. Here is the method: The cellular uptake of Tri-loaded bilosomes were investigated in RAW264.7 cells, a murine macrophage line. The cells were cultured in a RPMI-1640 medium containing 10% FBS (Gibco, CA, USA) at 37 °C in 5% CO2. When the cells grew to 80 ∼ 90% confluence, they were eligible for the cellular uptake test. Tri solution (dissolve in 75% ethanol), Tri-BLs and HA@Tri-BLs were diluted to 10 μg/mL with the culture medium and introduced into the cell wells for coincubation. To elucidate the uptake mechanism of HA@Tri-BLs, the uptake of HA@Tri-BLs was specially measured in the presence of various cytosis inhibitors or competitor, including hypertonic sucrose (400 mM), chlorpromazine (25 μM), simvastatin (5 μM), genistein (200 μM), free HA (25 μM), HUTCH-1 (10 μg/mL), EIPA (50 μM) and Lantraculin A (2.5 μM) (Deng et al., [2017]). The intracellular drug concentration was determined using HPLC by lysing the cells with RIPA lysis buffer and corrected by the protein content with BCA protein assay kit.

Series [1] can be described thus: Plasma pharmacokinetics in arthritic rats. The format is in vivo. To be noted: Sprague-Dawley, rat, iv, i.v. 10 mg/kg, mean ± SD. Here is the method:
The pharmacokinetics and tissue distribution of free Tri, Tri-BLs and HA@Tri-BLs were studied in arthritic rats. Sprague–Dawley (SD) rats weighing 250 ± 20 g were used to establish the arthritic model. The rats were acclimatized for 20 days in a standard animal room and provided with food and water ad libitum. On the 21st day, the rats were received injection of Freund’s complete adjuvant (FCA) containing 10 mg/mL of Mycobacterium tuberculosis (Sigma-Aldrich) at the right foot (Jia and He, [2016]). […] The established arthritic rats were intravenously injected with Tri solution (dissolved in 75% ethanol solution and diluted with deionized water), Tri-BLs and HA@Tri-BLs via the jugular vein at a dose of 10 mg/kg. After administration, aliquots of blood (∼250 μL) were continuously sampled from the caudal vein into heparinized tubes at predetermined intervals.
Another three groups of arthritic rats were applied for biodistribution study to analyze the in vivo drug distribution of Tri solution, Tri-BLs and HA@Tri-BLs. At 0.5, 1, 2 and 4 h after injection, […] were sacrificed, and the heart, liver, spleen, lung, and kidney as well as the joint were excised or harvested. The drug in the blood and tissue samples was extracted twice with ethyl acetate from the prepared plasma and tissue homogenates (Zhang et al., [2014]). The extracted drug solution was then condensed and reconstituted in 50 μL of methanol for HPLC analysis with gossypol as an internal standard. The experimental protocols settled were reviewed and approved by the Animal Care and Use Committee of Chengdu University of Traditional Chinese Medicine.

Series [2] in a line: Intra-articular pharmacokinetics and biodistribution in arthritic rats. The format is in vivo, Sprague–Dawley (SD) rats.
Another series can be described thus: Water solubility. In kind it is physicochemical.

Usually half-life stands for the time in which the quantity being followed falls by half. The low end stands for fast loss, the high end for slow loss. For orientation: clearance means the rate of elimination divided by the concentration. In general, MRT refers to the average time that molecules of a dose stay in the body.

On to `CCN(c1nc(N)c(C(=O)NC(=N)N)nc1Cl)C(C)C` [EIPA, ethylisopropyl amiloride], for which the “Reduction in cellular uptake of HA@Tri-BLs” value (“Reduction in cellular uptake” for short) in the series on RAW264.7 cells was “inhibited the cellular uptake of HA@Tri-BLs to different extents”.
Consider `CC1=C(O)C(=O)C=C2C1=CC=C1[C@@]2(C)CC[C@@]2(C)[C@@H]3C[C@](C)(C(=O)O)CC[C@]3(C)CC[C@]12C` [Tri solution, Tripterine], for which the “Cellular uptake of Tri (intracellular Tri content)” value in the series on RAW264.7 cells (10 μg/mL, three incubation times) is “minimal uptake level”. Besides, the AUC(0-inf) in series [1] (n = 6) stood at 35900 ± 530 ng·h/mL; in series [2] (Sprague-Dawley, rat, iv, arthritic rats, i.v. 10 mg/kg, joint, read-out: AUC0–∞ pertinent to the joints), 1470 ng·h/mL. Moreover, in series [1] (n = 6), the half-life is 6.15 ± 0.22 h. Moreover, the clearance in series [1] (n = 6, read-out: CL (total drug clearance from plasma) (converted)) was 4.65 mL/min. In addition, the Cmax was determined as 22600 ± 710 ng/mL in series [1] (n = 6, read-out: Cmax (maximum plasma concentration)) and 652 ± 146 ng/mL in series [2] (Sprague-Dawley, rat, iv, arthritic rats, i.v. 10 mg/kg, joint, mean ± SD, n = 6). For the same compound, in series [1] (n = 6, read-out: MRT (mean residence time)), the MRT stood at 7.07 ± 0.767 h. In series [1] (n = 6, read-out: V (apparent volume of distribution)), the Vd worked out at 1.97 ± 0.35 L. For the same compound, the AUC(0-t) in series [2] (Sprague-Dawley, rat, iv, arthritic rats, i.v. 10 mg/kg, joint, mean ± SD, n = 6, read-out: AUC0−t in the joint) was 1470 ± 402 ng·h/mL. In addition, in series [2] (arthritic rats, 0.5, 1, 2 and 4 h after injection), the “Biodistribution of Tri in organs” value was “high distribution in the organs of heart and kidney besides the plasma”. Besides, the Water-solubility entry in the series “Water solubility” was “extremely poor water-solubility”.
Regarding `CN(C)CCCN1c2ccccc2Sc2ccc(Cl)cc21` [chlorpromazine, Chlorpromazine], in the series with RAW264.7 cells, the “Reduction in cellular uptake” value is given as “inhibited the cellular uptake of HA@Tri-BLs to different extents”.
As to `OC[C@H]1O[C@@](CO)(O[C@H]2O[C@H](CO)[C@@H](O)[C@H](O)[C@H]2O)[C@@H](O)[C@@H]1O` [hypertonic sucrose, sucrose], the “Reduction in cellular uptake” value in the series with RAW264.7 cells is recorded as “inhibited the cellular uptake of HA@Tri-BLs to different extents”.
Regarding hyaluronic acid [free HA], the “Reduction in cellular uptake” value in the series with RAW264.7 cells is 47.5%.
